According to patent publication US20190282501A1, “HYDROALCOHOLIC FOAM FORMULATIONS OF NAFTIFINE” (priority 2016, published 2019):
Counter-ions that a name gives are not always drawn. Like-named read-outs stand apart in the source and are kept apart here.

Columns and labels:
[1] = Description: To generate a foam composition that is capable of maintaining the high solubility of naftifine HCl without needing to add in surfactants, the solubility of the API with various excipients was tested. Naftifine hydrochloride was combined with different solvents to identify which solvents are able to solubilize the API. The objective of this study was to determine which solvents can be useful in the development of formulations where the API is soluble. The objective of this study was not to determine the maximal solubility of the API in the tested solvents.
To prepare the mixtures, the API was added at a 1% w/w concentration to each solvent at room temperature under mixing. Solubility at room temperature was then assessed after 24 hours by determining the presence of API crystals using microscopic observation at ×200 magnification under polarized light. The mixture was then heated to about 80° C. for 10 minutes and mixed. Solubility at 80° C. was assessed by visual observation. The mixture was then cooled to room temperature and solubility was assessed after 24 hours by determining the presence of API crystals using microscopic evaluation at ×200 magnification under polarized light.
The first column in Table 5 relates to the solubility at room temperature before heating to 80° C. The second column relates to the solubility at 80° C. as observed visually. The third column relates to the solubility after the mixture has been heated to 80° C. and cooled down to room temperature.

[2] = after 3m and after 6m at 25° C., 30° C. and 40° C.; stated below Table 6B (Formulation D)
Description: The amount of active agent present is analyzed in foam expelled from various pressurized canisters containing foam formulations using HPLC. Analysis is carried out at zero time and at appropriate time intervals thereafter. The canisters are stored in controlled temperature incubators at one or more of 5° C., at 25° C., at, 40° C. and at 50° C. At appropriate time intervals canisters are removed and the amount of active agent in the foam sample is measured.

[3] = in Capric caprylic triglycerides

CN(C/C=C/c1ccccc1)Cc1cccc2ccccc12 [naftifine hydrochloride, (E)-N-methyl-N-(1-naphthyl-methyl)-3-phenyl-2-propen-l-amine hydrochloride]
~4%: Maximum Solubility at RT ([1]; in Ethanol 95%)
<1%: Max. Solubility at RT after heating at 80° C. [1, 3] | Maximum Solubility at 80° C. [1, 3] | Maximum Solubility at RT [1, 3] | Max. Solubility at RT after heating at 80° C. ([1]; in Castor oil) | Maximum Solubility at 80° C. ([1]; in Castor oil) | Maximum Solubility at RT ([1]; in Castor oil) | Max. Solubility at RT after heating at 80° C. ([1]; in Cyclomethicone) | Maximum Solubility at 80° C. ([1]; in Cyclomethicone) | Maximum Solubility at RT ([1]; in Cyclomethicone) | Max. Solubility at RT after heating at 80° C. ([1]; in Diethyl sebacate) | Maximum Solubility at 80° C. ([1]; in Diethyl sebacate) | Maximum Solubility at RT ([1]; in Diethyl sebacate) | Max. Solubility at RT after heating at 80° C. ([1]; in Diisopropyl adipate) | Maximum Solubility at 80° C. ([1]; in Diisopropyl adipate) | Maximum Solubility at RT ([1]; in Diisopropyl adipate) | Max. Solubility at RT after heating at 80° C. ([1]; in Dimethyl isosorbide) | Maximum Solubility at 80° C. ([1]; in Dimethyl isosorbide) | Maximum Solubility at RT ([1]; in Dimethyl isosorbide) | Maximum Solubility at RT ([1]; in Glycerin) | Maximum Solubility at RT ([1]; in Glycofurol) | Maximum Solubility at RT ([1]; in Hexylene glycol) | Maximum Solubility at RT ([1]; in Isopropyl alcohol) | Max. Solubility at RT after heating at 80° C. ([1]; in Isopropyl myristate) | Maximum Solubility at 80° C. ([1]; in Isopropyl myristate) | Maximum Solubility at RT ([1]; in Isopropyl myristate) | Max. Solubility at RT after heating at 80° C. ([1]; in Isostearic acid) | Maximum Solubility at 80° C. ([1]; in Isostearic acid) | Maximum Solubility at RT ([1]; in Isostearic acid) | Max. Solubility at RT after heating at 80° C. ([1]; in Mineral oil light) | Maximum Solubility at 80° C. ([1]; in Mineral oil light) | Maximum Solubility at RT ([1]; in Mineral oil light) | Max. Solubility at RT after heating at 80° C. ([1]; in Octyldodecanol) | Maximum Solubility at 80° C. ([1]; in Octyldodecanol) | Maximum Solubility at RT ([1]; in Octyldodecanol) | Max. Solubility at RT after heating at 80° C. ([1]; in Oleic acid) | Maximum Solubility at 80° C. ([1]; in Oleic acid) | Maximum Solubility at RT ([1]; in Oleic acid) | Max. Solubility at RT after heating at 80° C. ([1]; in Oleyl alcohol) | Maximum Solubility at 80° C. ([1]; in Oleyl alcohol) | Maximum Solubility at RT ([1]; in Oleyl alcohol) | Max. Solubility at RT after heating at 80° C. ([1]; in Olive oil) | Maximum Solubility at 80° C. ([1]; in Olive oil) | Maximum Solubility at RT ([1]; in Olive oil) | Max. Solubility at RT after heating at 80° C. ([1]; in PPG-15 stearyl ether) | Maximum Solubility at 80° C. ([1]; in PPG-15 stearyl ether) | Maximum Solubility at RT ([1]; in PPG-15 stearyl ether) | Maximum Solubility at RT ([1]; in Polyethylene glycol 200) | Max. Solubility at RT after heating at 80° C. ([1]; in Polyethylene glycol 400) | Maximum Solubility at 80° C. ([1]; in Polyethylene glycol 400) | Maximum Solubility at RT ([1]; in Polyethylene glycol 400) | Maximum Solubility at RT ([1]; in Propylene glycol) | Max. Solubility at RT after heating at 80° C. ([1]; in Sodium pyroglutamic acid) | Maximum Solubility at 80° C. ([1]; in Sodium pyroglutamic acid) | Maximum Solubility at RT ([1]; in Sodium pyroglutamic acid) | Max. Solubility at RT after heating at 80° C. ([1]; in Soybean oil) | Maximum Solubility at 80° C. ([1]; in Soybean oil) | Maximum Solubility at RT ([1]; in Soybean oil) | Maximum Solubility at RT ([1]; in Transcutol) | Maximum Solubility at RT ([1]; in Water)
dissolved well: Dissolution in hydrophilic solvents ([1]; propylene glycol (after heating), ethanol, dimethyl sulfoxide and polyethylene glycol 200 (after heating))
~1%: Max. Solubility at RT after heating at 80° C. ([1]; in Glycerin) | Maximum Solubility at 80° C. ([1]; in Glycerin) | Max. Solubility at RT after heating at 80° C. ([1]; in Glycofurol) | Maximum Solubility at 80° C. ([1]; in Glycofurol) | Max. Solubility at RT after heating at 80° C. ([1]; in Hexylene glycol) | Maximum Solubility at 80° C. ([1]; in Hexylene glycol) | Max. Solubility at RT after heating at 80° C. ([1]; in Water) | Maximum Solubility at 80° C. ([1]; in Water)
higher than 8%: Max. Solubility at RT after heating at 80° C. ([1]; in Ethanol 95%, listed as naftifine HCl, hydrochloride)
stable: Stability of naftifine [2]
~2%: Maximum Solubility at RT ([1]; in Dimethyl sulfoxide) | Max. Solubility at RT after heating at 80° C. ([1]; in Isopropyl alcohol) | Maximum Solubility at 80° C. ([1]; in Isopropyl alcohol) | Max. Solubility at RT after heating at 80° C. ([1]; in Transcutol) | Maximum Solubility at 80° C. ([1]; in Transcutol)
>8%: Max. Solubility at RT after heating at 80° C. ([1]; in Dimethyl sulfoxide) | Maximum Solubility at 80° C. ([1]; in Dimethyl sulfoxide) | Maximum Solubility at 80° C. ([1]; in Ethanol 95%) | Max. Solubility at RT after heating at 80° C. ([1]; in Ethanol 95%, hydrochloride) | Max. Solubility at RT after heating at 80° C. ([1]; in Propylene glycol) | Maximum Solubility at 80° C. ([1]; in Propylene glycol)
did not dissolve: Dissolution in hydrophobic solvents ([1]; hydrophobic solvents, even under heating)
~3%: Max. Solubility at RT after heating at 80° C. ([1]; in Polyethylene glycol 200)
~6%: Maximum Solubility at 80° C. ([1]; in Polyethylene glycol 200)
